According to patent publication US20090253755A1, “N-[(PYRIDIN-2-YL) METHOXY] BENZAMIDE DERIVATIVES AND RELATED COMPOUNDS AS FUNGICIDES” (Bayer Cropscience SA, priority 2006, published 2009):

Test system: Alternaria alternata
Assay: Cell test on Alternaria alternata
Assay type: cell-based
Settings: under similar conditions (cell test, 2 ppm)
Procedure: Cell Test on Alternaria alternata
The growth of Alternaria alternata is performed on PDA medium at 20° C. under black light during 14 days. The PDA medium is prepared by mixing 39 grams of PDA (Merck) in 1 liter of demineralized water.
The medium is sterilized by autoclave 15 minutes at 121° C. After 14 days of growth, the spores of Alternaria alternata are recovered in sterilized water and the concentration of spores adjusted to 10^6 spores per ml.
The compounds is solubilized in DMSO and added to sterile liquid glucose/mycopeptone medium (14.6 g/l of D-glucose, 7.1 g/l of mycological peptone (Oxoid) and 1.4 g/l of yeast extract (Merck)) at a concentration of 2 ppm.
The medium is inoculated with the spore suspension at a concentration of 10^5 spores per ml.
The efficacy of the compounds is assessed by OD measurement at 620 nm after 5 days at 20° C. in comparison with a control.

Row | Structure (SMILES) | activity
1 | O=C(NOCc1ncc(C(F)(F)F)cc1Cl)c1c(Cl)cccc1Cl [Compound 501, 2,6-dichloro-N-{[3-chloro-5-(trifluoromethyl)pyridin-2-yl]methoxy}benzamide] | did not show any activity
2 | O=C(NOCc1ncc(C(F)(F)F)cc1Cl)c1c(F)cccc1F [Compound 502, N-{[3-chloro-5-(trifluoromethyl)pyridin-2-yl]methoxy}-2,6-difluorobenzamide] | did not show any activity
